Results from US5756546A (priority 1994, dated 1998).
Counter-ions that a name gives are not always drawn.

Experiments:
[1] = whether or not linked with L-arginine
[2] = known salts in solution; cited from earlier work

Row | Compound | pH imposed in solution compared with the alkali metal salts (in words) [1] | pH imposed in solution (in words) [2]
1 | CS(=O)(=O)Nc1ccc([N+](=O)[O-])cc1Oc1ccccc1 [nimesulide-L-lysine salt] | markedly less alkaline pH | 
2 | CS(=O)(=O)Nc1ccc([N+](=O)[O-])cc1Oc1ccccc1 [sodium salt of nimesulide] |  | relatively alkaline pH
